Measurements from patent US20120265121A1, “PHTHALOCYANINE-BASED ANTIFUNGAL AGENTS” (CASE WESTERN RESERVE UNIVERSITY, priority 2011, published 2012).

Assays:
[1] = tested on: C. albicans (strain SC-5134); assay: FITC-labeled Annexin V staining of protoplasts (phosphatidylserine externalization); type: cell-based, Candida albicans; details: positive controls: 20 mM H2O2 or 60 μM acetic acid, 4 hr
Experimental: Cells were then incubated for 4 hr before staining with FITC-labeled Annexin V. FIG. 4(a) provides confocal images of FITC-labeling of cells that had been treated with H2O2 or Pc 4-PDT. Scale bar, 20 μm. FIG. 4(b) provides a bar graph showing the results. For each experiment over 50-100 protoplasts cells were counted per sample. […] Cells were counted by eye using a Zeiss AxiovertTM S100 inverted epifluorescence microscope. Values represent the mean±S.E. from at least three independent experiments. […] Apoptosis Analyses: (A) FITC-labeled Annexin V staining-To assess the externalization of phosphatidylserine, protoplasts of C. albicans were stained with FITC-labeled Annexin V using the Annexin V-FLUOS staining kit (Roche, Germany) with minor modifications. Madeo et al., J Cell Biol 139:729-734 (1997); Park et al., Biochem Biophys Res Commun 394:170-172 (2010). Briefly, control and treated cells were washed three times with 1× PBS before incubating at 37° C. for 30 min in a protoplasting solution (50 mM KH2PO4, 5 mM EDTA and 50 mM DTT). Then cells were digested at 37° C. for 45 min in an enzyme solution (50 mM K2HPO4, 40 mM 2-mercaptoethanol, 3 μg/mL Chitinase, 1.8 μg/mL […], 0.15 mg/mL Zymolyase and 2.4 M sorbitol). 1× PBS was added to each sample and incubated for 30 min at room temperature in all experiments. Protoplasts were then incubated with 100 μL of Annexin V-FLUOS labeling solution for 15 min at 25° C. FITC-labeled Annexin V fluorescence was detected by both widefield (Leica DMI6000B microscope; Leica Microsystems, Inc., Bannockburn, Ill., USA) and confocal fluorescence microscopy.

[2] = tested on: C. albicans (strain SC-5134); assay: Chromatin condensation by confocal microscopy; type: cell-based, Candida albicans; details: highest dose of Pc 4-PDT or peroxide, 24 hr after treatment
Experimental: Confocal Microscopy: To investigate the uptake and localization of Pc 4, cells in standard growth medium plus 10% Fetal Bovine Serum (FBS) were loaded with 0.2 μM Pc 4 and incubated for 16 to 18 hr. Thirty minutes prior to imaging Pc 4, 50 nM MitoTracker Red (Invitrogen, Carlsbad, Calif., USA) or 50 μg/mL AlexaFluor 488-conjugated Concanavalin (Con) A (Invitrogen, Carlsbad, Calif., USA) and/or 10 μg/mL Hoechst 33342 (Invitrogen, Carlsbad, Calif., USA) was loaded onto cells. Five to 10 μL of stained cells were placed on a slide with a glass coverslip and all images acquired using an UltraVIEW VoX spinning disk confocal system (PerkinElmer, Waltham, Mass., USA), which was mounted on a Leica DMI6000B microscope (Leica Microsystems, Inc., Bannockburn, Ill., USA) equipped with a HCX PL APO 100×/1.4 oil immersion objective. Confocal images of Pc 4 fluorescence, MitoTracker Red, ConA (or FITC-labeled Annexin V) and Hoechst 33342 were collected using solid-state diode lasers, with 640-nm, 561-nm, 488-nm and 405-nm excitation light, respectively, and with appropriate emission filters.

Structure (SMILES)	Annexin V positive cells [1] [%]	chromatin condensation [2]
OO [H2O2, hydrogen peroxide, reference compound]	~27	detected
CC(=O)O [acetic acid]	~27	–
